Laboratory results as given in patent US7998978B2 (Pfizer Inc., priority 2006, dated 2011).

Each molecule was assayed against T1, JNK1α1 (Homo sapiens, UniProt P45983) (assay: Coupled spectrophotometric (PK/LDH) JNK1α1 assay: % inhibition and Ki determination). Conditions: @10 uM; read-out: % Inhibition JNK-1.
T1 construct: catalytic domain containing amino acids 1-364 and N-terminal hexahistidine tag; hexahistidine (His6) (N); made in house; host or cells: E. coli BL21 (DE3)
Format: biochemical
Outline: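 Initial rates were taken from the absorbance decrease at 340 nm at 30° C. Ki was fitted with a tight-binding model over 11 concentrations (top 100 μM); single-point inhibition was tested at 1 or 10 μM.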

T1 sequence (P45983 1-364): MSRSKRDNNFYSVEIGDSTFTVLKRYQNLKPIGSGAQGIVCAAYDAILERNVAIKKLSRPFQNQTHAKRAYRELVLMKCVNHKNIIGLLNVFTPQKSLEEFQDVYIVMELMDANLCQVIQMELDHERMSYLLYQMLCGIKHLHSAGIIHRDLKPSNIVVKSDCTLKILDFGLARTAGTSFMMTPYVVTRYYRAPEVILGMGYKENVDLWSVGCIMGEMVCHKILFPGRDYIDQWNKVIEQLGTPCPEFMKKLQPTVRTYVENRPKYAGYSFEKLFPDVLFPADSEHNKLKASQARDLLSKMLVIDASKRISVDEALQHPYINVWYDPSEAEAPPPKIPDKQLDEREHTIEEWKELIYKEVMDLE

Row | inhibition at 10 µM [%] | Compound
1 | 17 | c1cc(CNc2cc3cc(-c4cn[nH]c4)ccc3cn2)[nH]n1 [Example 229, 6-(1H-pyrazol-4-yl)-N-(1H-pyrazol-5-ylmethyl)isoquinolin-3-amine]
2 | 43 | Cn1ccnc1-c1ccc(CNc2cc3cc(-c4cn[nH]c4)ccc3cn2)cc1 [Example 230, N-[4-(1-methyl-1H-imidazol-2-yl)benzyl]-6-(1H-pyrazol-4-yl)isoquinolin-3-amine]
3 | 43 | COc1ccc(CNc2cc3cc(-c4cn[nH]c4)ccc3cn2)cn1 [Example 231, N-[(6-methoxypyridin-3-yl)methyl]-6-(1H-pyrazol-4-yl)isoquinolin-3-amine]
4 | 46 | COc1ccccc1-c1ncc(CNc2cc3cc(-c4cn[nH]c4)ccc3cn2)cn1 [Example 232, N-{[2-(2-methoxyphenyl)pyrimidin-5-yl]methyl}-6-(1H-pyrazol-4-yl)isoquinolin-3-amine]
5 | 46 | c1ccc(Cn2cccn2)c(CNc2cc3cc(-c4cn[nH]c4)ccc3cn2)c1 [Example 233, 6-(1H-pyrazol-4-yl)-N-[2-(1H-pyrazol-1-ylmethyl)benzyl]isoquinolin-3-amine]
6 | 19 | CC(C)Oc1ccc(CNc2cc3cc(-c4cn[nH]c4)ccc3cn2)cc1CO [Example 234, [2-isopropoxy-5-({[6-(1H-pyrazol-4-yl)isoquinolin-3-yl]amino}methyl)phenyl]methanol]
7 | 15 | c1ncc(-c2ccc(CNc3cc4cc(-c5cn[nH]c5)ccc4cn3)cc2)cn1 [Example 235, 6-(1H-pyrazol-4-yl)-N-(4-pyrimidin-5-ylbenzyl)isoquinolin-3-amine]
8 | 49 | COc1ccc(F)c(CNc2cc3cc(-c4cn[nH]c4)ccc3cn2)c1 [Example 236, N-(2-fluoro-5-methoxybenzyl)-6-(1H-pyrazol-4-yl)isoquinolin-3-amine]
9 | 41 | CS(=O)(=O)Nc1ccc(CNc2cc3cc(-c4cn[nH]c4)ccc3cn2)cc1 [Example 237, N-[4-({[6-(1H-pyrazol-4-yl)isoquinolin-3-yl]amino}methyl)phenyl]methanesulfon-amide]
10 | 46 | N#Cc1cccc(CNc2cc3cc(-c4cn[nH]c4)ccc3cn2)c1 [Example 238, 3-({[6-(1H-pyrazol-4-yl)isoquinolin-3-yl]amino}methyl)benzonitrile]

Same assay, conditions: JNK-1

Row | Ki [nM] | Compound
11 | 1710 | Cc1ccc2cnc(N[C@H]3CC[C@H](O)CC3)nc2c1OCC(=O)NC1CCOCC1 [Example 210, 2-({2-[(trans-4-hydroxycyclohexyl)amino]-7-methylquinazolin-8-yl}oxy)-N-(tetrahydro-2H-pyran-4-yl)acetamide]
12 | 1030 | Cc1ccc2cnc(N[C@H]3CC[C@H](O)CC3)nc2c1OCC(=O)NC1CCS(=O)(=O)C1 (stereo partly drawn) [Example 211, N-(1,1-dioxidotetrahydro-3-thienyl)-2-({2-[(trans-4-hydroxycyclohexyl)amino]-7-methylquinazolin-8-yl}oxy)acetamide]
13 | 1950 | Cc1ccc2cnc(N[C@H]3CC[C@H](O)CC3)nc2c1OCC(=O)N(C)CCO [Example 212, 2-({2-[(trans-4-hydroxycyclohexyl)amino]-7-methylquinazolin-8-yl}oxy)-N-(2-hydroxyethyl)-N-methylacetamide]
14 | 780 | Cc1ccc2cnc(N[C@H]3CC[C@H](O)CC3)nc2c1OCC(=O)N1CCOCC1 [Example 213, trans-4-{[7-methyl-8-(2-morpholin-4-yl-2-oxoethoxy)quinazolin-2-yl]amino} cyclohexanol]
15 | 1300 | Cc1ccc2cnc(N[C@H]3CC[C@H](O)CC3)nc2c1OCC(=O)N1CCS(=O)(=O)CC1 [Example 214, trans-4-({8-[2-(1,1-dioxidothiomorpholin-4-yl)-2-oxoethoxyl]-7-methylquinazolin-2-yl}amino) cyclohexanol]
16 | 250 | OC1(c2cncnc2)CCC(Nc2cc3cc(-c4cn[nH]c4)ccc3cn2)CC1 (stereo not drawn) [Example 215, 4-{[6-(1H-pyrazol-4-yl)isoquinolin-3-yl]amino}-1-pyrimidin-5-ylcyclohexanol]
17 | 480 | c1cnc(N2CCC(Nc3cc4cc(-c5cn[nH]c5)ccc4cn3)CC2)nc1 [Example 216, 6-(1H-pyrazol-4-yl)-N-(1-pyrimidin-2-ylpiperidin-4-yl)isoquinolin-3-amine]
18 | 775 | CC(=O)NC1CCC(Nc2cc3cc(-c4cn[nH]c4)ccc3cn2)CC1 (stereo not drawn) [Example 217, N-(4-{[6-(1H-pyrazol-4-yl)isoquinolin-3-yl]amino}cyclohexyl)acetamide]
19 | 843 | c1cc2cnc(NC3CCOCC3)cc2cc1-c1cn[nH]c1 [Example 218, 6-(1H-pyrazol-4-yl)-N-(tetrahydro-2H-pyran-4-yl)isoquinolin-3-amine]
20 | 1160 | COc1cc2c(cc1CNc1cc3cc(-c4cn[nH]c4)ccc3cn1)N(C)C(=O)CC2 [Example 219, 6-methoxy-1-methyl-7-({[6-(1H-pyrazol-4-yl)isoquinolin-3-yl]amino}methyl)-3,4-dihydroquinolin-2(1H)-one]
21 | 1930 | c1ccc2ncc(CNc3cc4cc(-c5cn[nH]c5)ccc4cn3)cc2c1 [Example 220, 6-(1H-pyrazol-4-yl)-N-(quinolin-3-ylmethyl)isoquinolin-3-amine]
22 | 2220 | c1cnc2ccc(CNc3cc4cc(-c5cn[nH]c5)ccc4cn3)cc2c1 [Example 221, 6-(1H-pyrazol-4-yl)-N-(quinolin-6-ylmethyl)isoquinolin-3-amine]
23 | 2950 | c1ccc2nc(CNc3cc4cc(-c5cn[nH]c5)ccc4cn3)cnc2c1 [Example 222, 6-(1H-pyrazol-4-yl)-N-(quinoxalin-2-ylmethyl)isoquinolin-3-amine]
24 | 3280 | c1cc(CNc2cc3cc(-c4cn[nH]c4)ccc3cn2)cc(-c2cncnc2)c1 [Example 223, 6-(1H-pyrazol-4-yl)-N-(3-pyrimidin-5-ylbenzyl)isoquinolin-3-amine]
25 | 3370 | c1cc(CNc2cc3cc(-c4cn[nH]c4)ccc3cn2)cc(-n2cccn2)c1 [Example 224, 6-(1H-pyrazol-4-yl)-N-[3-(1H-pyrazol-1-yl)benzyl]isoquinolin-3-amine]
26 | 5160 | c1ccc(-c2nc(CNc3cc4cc(-c5cn[nH]c5)ccc4cn3)c[nH]2)cc1 [Example 225, N-[(2-phenyl-1H-imidazol-4-yl)methyl]-6-(1H-pyrazol-4-yl)isoquinolin-3-amine]
27 | 5270 | N#Cc1cc(CNc2cc3cc(-c4cn[nH]c4)ccc3cn2)ccc1F [Example 226, 2-fiuoro-5-({[6-(1H-pyrazol-4-yl)isoquinolin-3-yl]amino}methyl)benzonitrile]
28 | 6620 | Cc1cc(CNc2cc3cc(-c4cn[nH]c4)ccc3cn2)ccn1 [Example 227, N-[(2-methylpyridin-4-yl)methyl]-6-(1H-pyrazol-4-yl)isoquinolin-3-amine]
29 | 11500 | CCN(CC)CCN1CCC(Nc2cc3cc(-c4cn[nH]c4)ccc3cn2)CCC1=O (stereo not drawn) [Example 228, 1-[2-(diethylamino)ethyl]-5-{[6-(1H-pyrazol-4-yl)isoquinolin-3-yl]amino}azepan-2-one]
30 | 67 | O[C@H]1CC[C@H](Nc2ncc3cccc(OC4CCC(F)(F)CC4)c3n2)CC1 [Example 239, trans-4-({8-[(4,4-difluorocyclohexyl)oxy]quinazolin-2-yl}amino)cyclohexanol]
